Patent US6534543B2, “Oxa acids and related compounds for treating skin conditions” (Avon Products, Inc., priority 1996, dated 2003)

Test system: stratum corneum desquamation
Assay: normalizing effect on stratum corneum desquamation
Source text: Oxa acids easily dissolve in water to concentrations of at least 20 to 30% by weight. […] Dicarboxylic acids of moderate to long chain length, which have straight, all-carbon backbones, are virtually insoluble in water and other aesthetically acceptable vehicles. This severely limits the choice of delivery vehicles for the dicarboxylic acids. The desquamatory activity of such dicarboxylic acids is also questionable.

`O=C(O)CCCCCCCCCCC(=O)O` [dodecanedioic acid] was tested, and the “normalizing effect on stratum corneum desquamation beyond that of vehicle alone” value (formulation containing 5% dodecanedioic acid) was “do not produce any normalizing effect” and the “normalizing effect on stratum corneum desquamation beyond that of vehicle alone” value (formulation containing 10% dodecanedioic acid) was “do not produce any normalizing effect”.
